Source: the CheMixHub viscosity set
± gives the uncertainty stated by the source.

Test: xn = mol fraction of the nth substance listed

COc1ccccc1 + CS(C)=O
viscosity [mPa·s], 101.3 kPa
Conditions | x2 = 0.1034 | x2 = 0.203 | x2 = 0.3049 | x2 = 0.4058 | x2 = 0.5049 | x2 = 0.6063 | x2 = 0.7044 | x2 = 0.8039 | x2 = 0.9011
298.15 K | 1.049 ± 0.026 | 1.113 ± 0.028 | 1.184 ± 0.029 | 1.259 ± 0.031 | 1.342 ± 0.033 | 1.443 ± 0.035 | 1.544 ± 0.037 | 1.666 ± 0.04 | 1.808 ± 0.043
303.15 K | 0.968 ± 0.024 | 1.024 ± 0.026 | 1.104 ± 0.027 | – | 1.229 ± 0.03 | 1.32 ± 0.032 | 1.408 ± 0.034 | 1.517 ± 0.037 | 1.641 ± 0.039
308.15 K | 0.899 ± 0.023 | 0.949 ± 0.024 | 1.008 ± 0.025 | 1.068 ± 0.027 | 1.133 ± 0.028 | 1.214 ± 0.03 | 1.292 ± 0.032 | 1.388 ± 0.034 | 1.5 ± 0.036

Cc1ccc(S(=O)(=O)O)cc1 + C[N+](C)(C)Cc1ccccc1.[Cl-]
Conditions | viscosity [mPa·s]
298 K, 101 kPa, x2 = 0.3 | 12850 ± 1300

CC1COC(=O)O1 (stereo unspecified) + Cc1ccc(C)cc1
viscosity [mPa·s], 101 kPa
Conditions | 298.15 K | 308.15 K
x1 = 0.0227 | 0.6155 ± 0.025 | 0.5443 ± 0.023
x1 = 0.0397 | 0.6246 ± 0.025 | 0.5534 ± 0.023
x1 = 0.0573 | 0.6333 ± 0.025 | 0.5634 ± 0.023
x1 = 0.0816 | – | 0.5779 ± 0.024
x1 = 0.098 | 0.6527 ± 0.026 | 0.5884 ± 0.024
x1 = 0.209 | 0.728 ± 0.029 | 0.6727 ± 0.027
x1 = 0.3029 | 0.8062 ± 0.031 | 0.7639 ± 0.03
x1 = 0.3993 | 0.9317 ± 0.035 | 0.8783 ± 0.033
x1 = 0.5028 | 1.116 ± 0.041 | 1.026 ± 0.038
x1 = 0.5978 | 1.316 ± 0.048 | 1.184 ± 0.043
x1 = 0.7068 | 1.584 ± 0.056 | 1.394 ± 0.05
x1 = 0.8012 | 1.856 ± 0.065 | 1.599 ± 0.057
x1 = 0.8996 | 2.149 ± 0.074 | 1.835 ± 0.064

c1ccc2ccccc2c1 + Cc1ccc(C)cc1
viscosity [mPa·s], 101.3 kPa
Conditions | x1 = 0.00437 | x1 = 0.00869 | x1 = 0.01249 | x1 = 0.01685 | x1 = 0.01712 | x1 = 0.01715 | x1 = 0.01815 | x1 = 0.02139 | x1 = 0.02569 | x1 = 0.02979
293.15 K | 0.6371 ± 0.017 | 0.6386 ± 0.017 | 0.6414 ± 0.017 | – | – | – | 0.6438 ± 0.017 | 0.6483 ± 0.017 | 0.65 ± 0.017 | 0.6534 ± 0.017
298.15 K | 0.5968 ± 0.016 | 0.5992 ± 0.016 | 0.6012 ± 0.016 | – | – | 0.6045 ± 0.016 | – | 0.6076 ± 0.016 | 0.6102 ± 0.016 | 0.6125 ± 0.016
313.15 K | 0.5333 ± 0.014 | 0.5352 ± 0.014 | 0.5363 ± 0.014 | – | 0.5405 ± 0.014 | – | – | 0.5431 ± 0.014 | 0.5447 ± 0.014 | 0.5469 ± 0.014
323.15 K | 0.476 ± 0.013 | 0.4777 ± 0.013 | 0.4789 ± 0.013 | 0.4818 ± 0.013 | – | – | – | 0.4848 ± 0.013 | 0.4862 ± 0.013 | 0.4879 ± 0.013

CC1COC(=O)O1 (stereo unspecified) + Cc1ccccc1
viscosity [mPa·s], 101.3 kPa
Conditions | 293.15 K | 298.15 K | 303.15 K | 308.15 K
x1 = 0.0911 | 0.6805 ± 0.036 | 0.6333 ± 0.034 | 0.5934 ± 0.032 | 0.5572 ± 0.03
x1 = 0.1223 | – | – | 0.6125 ± 0.011 | –
x1 = 0.1841 | 0.7726 ± 0.04 | 0.719 ± 0.037 | 0.6689 ± 0.035 | 0.6294 ± 0.034
x1 = 0.2385 | – | – | 0.7127 ± 0.013 | –
x1 = 0.2789 | 0.8738 ± 0.044 | 0.8139 ± 0.041 | 0.7586 ± 0.039 | 0.7171 ± 0.037
x1 = 0.3493 | – | – | 0.824 ± 0.014 | –
x1 = 0.3757 | 1.006 ± 0.05 | 0.9358 ± 0.047 | 0.8694 ± 0.044 | 0.8243 ± 0.042
x1 = 0.4553 | – | – | 0.9463 ± 0.016 | –
x1 = 0.4744 | 1.149 ± 0.056 | 1.074 ± 0.053 | 0.9983 ± 0.049 | 0.9407 ± 0.047
x1 = 0.5561 | – | – | 1.085 ± 0.018 | –
x1 = 0.5752 | 1.292 ± 0.062 | 1.195 ± 0.058 | 1.103 ± 0.054 | 1.03 ± 0.051
x1 = 0.6524 | – | – | 1.244 ± 0.021 | –
x1 = 0.678 | 1.529 ± 0.072 | 1.404 ± 0.067 | 1.304 ± 0.063 | 1.203 ± 0.058
x1 = 0.7452 | – | – | 1.431 ± 0.024 | –
x1 = 0.7831 | 1.856 ± 0.086 | 1.69 ± 0.079 | 1.549 ± 0.073 | 1.42 ± 0.068
x1 = 0.8335 | – | – | 1.646 ± 0.027 | –
x1 = 0.8904 | 2.256 ± 0.1 | 2.048 ± 0.095 | 1.869 ± 0.087 | 1.71 ± 0.08
x1 = 0.9188 | – | – | 1.888 ± 0.031 | –

c1ccc2ccccc2c1 + Cc1ccccc1
Conditions | viscosity [mPa·s]
293.15 K, 101.3 kPa, x1 = 0.00773 | 0.6067 ± 0.016
293.15 K, 101.3 kPa, x1 = 0.01364 | 0.606 ± 0.016
293.15 K, 101.3 kPa, x1 = 0.02032 | 0.6117 ± 0.016
293.15 K, 101.3 kPa, x1 = 0.02587 | 0.616 ± 0.016
293.15 K, 101.3 kPa, x1 = 0.03281 | 0.6241 ± 0.016
293.15 K, 101.3 kPa, x1 = 0.03882 | 0.6277 ± 0.016
293.15 K, 101.3 kPa, x1 = 0.04399 | 0.6308 ± 0.016
298.15 K, 101 kPa, x1 = 0.0419 | 0.5848 ± 0.015
298.15 K, 101 kPa, x1 = 0.1026 | 0.6394 ± 0.017
298.15 K, 101 kPa, x1 = 0.1533 | 0.6866 ± 0.018
298.15 K, 101 kPa, x1 = 0.2127 | 0.747 ± 0.02
298.15 K, 101.3 kPa, x1 = 0.00773 | 0.5676 ± 0.015
298.15 K, 101.3 kPa, x1 = 0.01364 | 0.5709 ± 0.015
298.15 K, 101.3 kPa, x1 = 0.02032 | 0.5768 ± 0.015
298.15 K, 101.3 kPa, x1 = 0.02587 | 0.581 ± 0.015
298.15 K, 101.3 kPa, x1 = 0.03281 | 0.5863 ± 0.015
298.15 K, 101.3 kPa, x1 = 0.03882 | 0.591 ± 0.015
298.15 K, 101.3 kPa, x1 = 0.04399 | 0.5948 ± 0.015
303.15 K, 101 kPa, x1 = 0.3218 | 0.7855 ± 0.02
308.15 K, 101 kPa, x1 = 0.3218 | 0.747 ± 0.019
308.15 K, 101 kPa, x1 = 0.3709 | 0.8101 ± 0.02
313.15 K, 101 kPa, x1 = 0.3218 | 0.7058 ± 0.018
313.15 K, 101 kPa, x1 = 0.3709 | 0.7571 ± 0.019
313.15 K, 101.3 kPa, x1 = 0.00773 | 0.4785 ± 0.013
313.15 K, 101.3 kPa, x1 = 0.01364 | 0.4809 ± 0.013
313.15 K, 101.3 kPa, x1 = 0.02032 | 0.4846 ± 0.013
313.15 K, 101.3 kPa, x1 = 0.02587 | 0.4888 ± 0.013
313.15 K, 101.3 kPa, x1 = 0.03281 | 0.4919 ± 0.013
313.15 K, 101.3 kPa, x1 = 0.03882 | 0.4951 ± 0.013
313.15 K, 101.3 kPa, x1 = 0.04399 | 0.4995 ± 0.013
318.15 K, 101 kPa, x1 = 0.3218 | 0.661 ± 0.017
318.15 K, 101 kPa, x1 = 0.3709 | 0.7105 ± 0.018
323.15 K, 101 kPa, x1 = 0.3218 | 0.627 ± 0.016
323.15 K, 101 kPa, x1 = 0.3709 | 0.672 ± 0.017
323.15 K, 101.3 kPa, x1 = 0.00773 | 0.4281 ± 0.011
323.15 K, 101.3 kPa, x1 = 0.01364 | 0.4311 ± 0.011
323.15 K, 101.3 kPa, x1 = 0.02032 | 0.4342 ± 0.011
323.15 K, 101.3 kPa, x1 = 0.02587 | 0.4374 ± 0.011
323.15 K, 101.3 kPa, x1 = 0.03882 | 0.4433 ± 0.011
323.15 K, 101.3 kPa, x1 = 0.04136 | 0.4401 ± 0.011
323.15 K, 101.3 kPa, x1 = 0.04399 | 0.4469 ± 0.011
